Experimental data from patent US4863748A, “Dietary products and uses comprising methylsulfonylmethane” (priority 1986, dated 1989).

Columns and labels:
[1] = Excretion of methylsulfonylmethane; type: in vivo
Description: Orally ingested methylsulfonylmethane is stored to some degree in various organs, presumably banked for future sulfur needs of the body. The skin excretion route is unusual, particularly since about one-third of a given oral dose can be found in the perspiration. Like NaCl, excretion depends somewhat on perspiration rate. The accumulation in and excretion of methylsulfonylmethane from the skin is believed to account for its cosmetic effect, viz., more youthful appearing, pliable, blemish-reduced skin. Chemical and radiolabeled sulfur (35-S) assays can be used to determine the extent to which important biomolecules as heparin, insulin, co-enzyme A and other --SH bearing enzymes, biotin, methionine enkaphalin, human growth factor, hemoglobin, calcitonin, fibrinogen, muscle protein and other compounds derive their thiol (--S--) and disulfide (--S--S--) groups from methylsulfonylmethane and the possible preference of methylsulfonylmethane over S-content amino acids as the donor with such synthesis.

[2] = system: bilateral fibrinous pleuritis; assay: Bilateral fibrinous pleuritis in a breeding mare (Examples 4 and 24); type: in vivo, horse (mare)
Procedure: A valuable breeding mare, treated for a respiratory infection developed bilateral fibrinous pleuritis, easily heard with auscultation of the chest. After six weeks therapy with a combination of conventional antibiotics and anti-inflammatory drugs, there was little if any improvement. Conventional therapy was terminated. Methylsulfonylmethane was added to the diet of this refractory case (24 g, twice daily, over a period of 5 days). This was the only special treatment given. […] Auscultation of the chest was negative.

coat = assay: Coat quality of guinea pigs (Example 8); type: in vivo; conditions: 2 wt. % in water, 28 days
Description: Ten 4-week old guinea pigs were housed in individual metal cages in a standard temperature room with a 12-hour light/dark cycle and acclimated over a 5-day period of feeding Purina guinea pig chow with water ad lib.
On day six, five animals were marked on the belly with red and the other five with blue water-insoluble ink. The marks were not visible when the animals were observed from above. Each animal after marking was returned to its cage and a corresponding red or blue tape affixed to the animal's watering bottle. The red marked bottles were maintained with tap water and the blue marked bottles were filled with tap water containing 2 wt. % methylsulfonylmethane. During a 28 day period, the animals were fed and allowed access to their water or water+2% methylsulfonylmethane, respectively, ad lib. On day 28, the animals were placed in common confinement on a well lighted table. Four individuals, totally unfamiliar with the test and its purpose were asked to evaluate the coat of each animal. Animals at each evaluation were removed by the evaluator and placed into one of two groups based on better or poorer quality of the animal's coat without seeing the color on the animal's belly.

[3] = system: gum inflammation and oral mucosa; assay: Oral hygiene (Example 11); type: in vivo, human
[4] = system: pain and inflammation of musculoskeletal system disorders; assay: Pain associated with systemic inflammatory disorders (Example 15); type: in vivo, human
Description: subject two, presented chronic arthritis with painful involvement of the lower trunk. Over the years they had evaluated most new antiarthritic, analgesic drugs with disappointing results.

mood and depression = assay: Mental normalcy (Example 16); type: in vivo, human
Procedure: Students reported that while taking methylsulfonylmethane, their ability to concentrate is enhanced. Methylsulfonylmethane therefore is useful in conjunction with CNS therapeutants. The most useful application for methylsulfonylmethane seen to date in the field of mental normalizing is as an aid to the terminally ill, to relieve anxiety and depression.
To a chronically or terminally ill patient suffering from mental depression, administer […] body weight of methylsulfonylmethane daily, in tablet or capsule form, dissolved in water or a cold beverage, or admixed in a cold food. Within 12 hours to 2 days, a significant improvement in the mental attitude of the patient will be noted.

[5] = Pin worm (Enterobius) infection in laboratory mice (Examples 19 and 28(c)); type: in vivo; conditions: mouse, blood, po; one animal examined; 2% by wt. in feed and drinking water; read-out: blood level of methylsulfonylmethane
Description: (§1) Laboratory mice determined by fecal cast examination to have pin worms were given commercial feed and drinking water, ad lib, both of which contained 2% by wt. methylsulfonylmethane. […] The blood level of methylsulfonylmethane in one animal examined exceeded 30 ppm.
(§2) Laboratory mice determined by fecal cast examination to have pin worms were given 2% by wt. of methylsulfonylmethane in both their commercial feed and drinking water, ad lib.

Enterobius (pin worms) = assay: as above; type: in vivo; conditions: 2% by wt. in feed and drinking water
Description: as §1, §2

lymphomas = conditions: oral, cited from earlier work
[6] = 24 g twice daily, 5 days (Example 4)

Question: With `CS(C)(=O)=O` [methylsulfonylmethane] as the compound, how does the rate of excretion ([1]; i.v. administration) read?
Answer: Its rate of excretion is “very rapidly excreted”.

Question: What about the “excretion of excess amounts (feces, renal pathway, skin)” value ([1]; in vivo) of the same compound?
Answer: Its value is “excreted unchanged”.

Question: And the “portion of a given oral dose found in the perspiration” value ([1]; oral)?
Answer: The value was “about one-third”.

Question: What about the response of pleuritis ([2]; 2×12 gm/day in diet, five days (Example 24)) of the same compound?
Answer: Its response of pleuritis is “responded favorably (normal breathing, negative ausculation of the chest)”.

Question: And the “auscultation of the chest” value [2, 6]?
Answer: The value was “negative”.

Question: And the “breathing at fifth day” value [2, 6]?
Answer: The value was “returned to normal”.

Question: What about the “pain at fifth day” value [2, 6] of the same compound?
Answer: The value was “no longer demonstrated pain”.

Question: And the “state over the next two years” value ([2]; followed two years after treatment (Example 4))?
Answer: The value was “normal and healthy”.

Question: And the “animals with blue belly mark selected as superior by fourth evaluator” value (coat)?
Answer: The value was “three”.

Question: What about the “evaluators selecting the five treated animals as having superior coats” value (coat) of the same compound?
Answer: The value was “Three of the four evaluators”.

Question: And the sense of taste ([3]; critical observers)?
Answer: Its sense of taste is “improved”.

Question: And the sense of smell ([3]; gargle, two subjects with restricted sense of smell)?
Answer: Its sense of smell is “sharpening of this sense”.

Question: What about the “bad breath associated with smoking or food” value ([3]; in water, saline solution or oral hygiene product) of the same compound?
Answer: Its value is “reduced or eliminated”.

Question: And the “viscosity of the mucous” value ([3]; subjects with viscid mucoid nasopharyngeal discharge)?
Answer: The value was “reduction in the viscosity of the mucous”.

Question: And the “relief of pain and inflammation, musculoskeletal system disorders” value ([4]; about 100 up to about 5,000 mg per day)?
Answer: Its value is “substantial and long lasting relief”.

Question: And the “relief in migraine sufferers” value ([4]; oral 50-500 mg per day)?
Answer: Its value is “substantial relief”.

Question: What about the “pain after about 16 months” value ([4]; subject two, 1/4-1/2 tsp. daily) of the same compound?
Answer: Its value is “substantially pain-free”.

Question: And the “pain relief by the end of the second week” value ([4]; subject two, chronic arthritis, 1/2 tsp. daily)?
Answer: The value was “almost total pain relief”.

Question: And the “time to significant improvement in mental attitude” value (mood and depression; 1000 mg/kg body weight daily, chronically or terminally ill patient)?
Answer: The value was “Within 12 hours to 2 days”.

Question: What about the alertness (mood and depression; reported by individuals) of the same compound?
Answer: Its alertness is “increased alertness”.

Question: What about the depression frequency (mood and depression; reported by individuals) of the same compound?
Answer: The depression frequency was “very infrequent depression”.

Question: And the mood changes (mood and depression; reported by individuals)?
Answer: The mood changes was “a plateau of mood changes”.

Question: What about the ability to concentrate (mood and depression; students) of the same compound?
Answer: Its ability to concentrate is “enhanced”.

Question: And the “time to relief of depression” value (mood and depression; subjects intermittently on antidepression medication, days with prior medication)?
Answer: The value was “within hours rather than days”.

Question: What about the concentration at 408 h [5] of the same compound?
Answer: Its concentration at 408 h is > 30000 ng/mL.

Question: What about the “worms and eggs in fecal cast after 17 days” value (Enterobius (pin worms)) of the same compound?
Answer: The value was “free of worms and eggs”.

Question: What about the development of lymphomas (lymphomas; compared with control) of the same compound?
Answer: The development of lymphomas was “significant delay”.

Question: And the tumor incidence (lymphomas; compared with control)?
Answer: Its tumor incidence is “decreased”.

Question: What about the joint involvement (lymphomas; only grossly examined) of the same compound?
Answer: The joint involvement was “marked reduction”.

Question: And the “titer of primary IgM and secondary IgG” value (lymphomas)?
Answer: The value was “increased titer”.
